Tests used:
in vitro [1] = details: rat, liver microsomes
in vitro [2] = details: human, Caco-2

Compound	half-life at 0.1 µM (in vitro [1]) [h]	Papp A→B at 10 µM (in vitro [2]) [×10⁻⁶ cm/s]
CC(C)NCC(O)COc1cccc2ccccc12 (configuration not stated) [PROPRANOLOL]	> 1	
CNC(=C[N+](=O)[O-])NCCSCc1ccc(CN(C)C)o1 [RANITIDINE]		0.3

From ChEMBL document CHEMBL5352494, “Hybrid molecules combining GABA-A and serotonin 5-HT6 receptors activity designed to tackle neuroinflammation associated with depression” (Eur J Med Chem, 2023)
